Results reported in PubChem BioAssay (NCI).
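Five compound concentrations were applied to cells in 96-well plates for 48 hours; endpoints were derived by simple linear interpolation of the resulting dose-response curve. GI50 is the concentration that inhibits growth by half. TGI denotes the concentration required for complete inhibition of growth.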

Assays:
Experiment in all cases: growth of human tumour cells (NCI), 48 h
COLO 205 colon = tested on: COLO 205 colon
ACHN renal = tested on: ACHN renal
HCT-116 colon = tested on: HCT-116 colon
RPMI-8226 leukemia = tested on: RPMI-8226 leukemia
SW-620 colon = tested on: SW-620 colon
M14 melanoma = tested on: M14 melanoma
NCI-H522 lung = tested on: NCI-H522 lung
HT29 colon = tested on: HT29 colon
A498 renal = tested on: A498 renal
U251 CNS = tested on: U251 CNS

Compound	TGI (COLO 205 colon)	TGI (ACHN renal)	TGI (HCT-116 colon)	TGI (RPMI-8226 leukemia)	TGI (SW-620 colon)	TGI (M14 melanoma)	TGI (NCI-H522 lung)	TGI (HT29 colon)	TGI (A498 renal)	TGI (U251 CNS)	GI50 (COLO 205 colon)	GI50 (ACHN renal)	GI50 (HCT-116 colon)	GI50 (RPMI-8226 leukemia)	GI50 (SW-620 colon)	GI50 (M14 melanoma)	GI50 (NCI-H522 lung)	GI50 (HT29 colon)	GI50 (A498 renal)	GI50 (U251 CNS)
CCN(CC)CC(C(=O)Nc1c(C)cccc1C)/C(C)=N\NC(=S)NN (stereo not given)	> 100 µM	> 100 µM	> 100 µM	> 100 µM	> 100 µM	> 100 µM	> 100 µM	> 100 µM	> 100 µM	> 100 µM	–	–	–	–	–	–	–	–	–	–
Cc1ccc(NC(=O)c2ccoc2)cc1-c1ccc(C(=O)NCC2CC2)cc1	> 25 µM	> 25 µM	> 25 µM	> 25 µM	> 25 µM	> 25 µM	> 25 µM	> 25 µM	> 25 µM	> 25 µM	> 25 µM	> 25 µM	> 25 µM	> 16.2 µM	> 25 µM	> 25 µM	> 15.9 µM	> 25 µM	> 11.3 µM	> 25 µM
C=CCn1c(SCC(=O)Nc2ccc(C(=O)/C=C/c3cc(OC)c(OC)c(OC)c3)cc2)nnc1-c1cc(OC)c(OC)c(OC)c1	24.7 µM	20.6 µM	5.12 µM	4.91 µM	16 µM	11.8 µM	27.2 µM	6.14 µM	20.3 µM	5.38 µM	4.94 µM	4.16 µM	2.09 µM	1.51 µM	3.37 µM	2.96 µM	6.89 µM	2.66 µM	7.4 µM	2.15 µM
CN1CCC2(CC1)C(=O)Nc1cc(NC(=O)c3ccc4c(c3)C[C@@H]3C(C)(C)[C@H](O)[C@H](F)C[C@@]3(C)O4)ccc12	7.36 µM	> 100 µM	17.2 µM	10.8 µM	11.5 µM	4.37 µM	33.2 µM	36.8 µM	1.09 µM	16.4 µM	1.84 µM	8.59 µM	1.35 µM	0.0272 µM	0.588 µM	0.549 µM	10.8 µM	2.94 µM	0.135 µM	0.0472 µM
CC(C)OC(=O)Nc1c([N+](=O)[O-])cc(C(F)(F)F)cc1[N+](=O)[O-]	> 100 µM	> 100 µM	> 100 µM	> 100 µM	> 100 µM	> 100 µM	> 100 µM	> 100 µM	> 100 µM	> 100 µM	–	–	–	–	–	–	–	–	–	–
Clc1ccc(NCNC2Nc3ccccc3N2)cc1Cl	> 100 µM	> 100 µM	> 100 µM	> 100 µM	> 100 µM	> 100 µM	56.2 µM	64 µM	> 100 µM	> 100 µM	–	–	–	–	–	–	–	–	–	–
C=C(C)[C@@H]1CC[C@]2(C(=O)OC)CC[C@]3(C)[C@H](CC[C@@H]4[C@@](C)(CCc5nn[nH]n5)[C@H](C(=C)C)CC[C@]43C)[C@@H]12	47.9 µM	48.1 µM	> 100 µM	29.8 µM	46 µM	> 100 µM	51.5 µM	73.3 µM	60.7 µM	32.4 µM	19.7 µM	15 µM	26.9 µM	4.07 µM	19.3 µM	27.5 µM	17.2 µM	20.6 µM	22.4 µM	15.4 µM
O=C(c1ccccc1)c1nc2ccc(Cl)cc2cc1C(Br)Br	1.6 µM	0.662 µM	0.34 µM	1.18 µM	0.905 µM	5.65 µM	3.68 µM	0.743 µM	9.45 µM	0.674 µM	–	–	–	–	–	–	–	–	–	–
O=C(O)C1CCCN1 (stereo not given)	> 100 µM	> 100 µM	> 100 µM	> 100 µM	> 100 µM	> 100 µM	> 100 µM	> 100 µM	> 100 µM	> 100 µM	–	–	–	–	–	–	–	–	–	–
[O-]c1ccccc1C=NCCN=Cc1ccccc1[O-].[O]=[U+2]=[O]	> 85.1 µM	> 60.7 µM	> 100 µM	> 31.6 µM	> 100 µM	> 85.8 µM	> 75.2 µM	> 100 µM	> 64.8 µM	39.1 µM	> 51.8 µM	25.9 µM	46.2 µM	22.4 µM	> 100 µM	40.9 µM	> 53.4 µM	> 100 µM	> 45.6 µM	19.3 µM
Cc1cc(C)c2c(c1)CSCc1cc(C)cc(C)c1-2	73.3 µM	> 100 µM	60.5 µM	56.4 µM	> 100 µM	91.8 µM	48 µM	47.1 µM	79.9 µM	40.5 µM	–	–	–	–	–	–	–	–	–	–
COc1cccc2c1C(=O)c1c(O)c3c(c(O)c1C2=O)C[C@@](O)(/C(C)=N/NC(=O)c1cccc([N+](=O)[O-])c1)C[C@@H]3OC1CC(N)C(O)C(C)O1 (stereo not given in full)	1.5 µM	1.65 µM	5.25 µM	1.86 µM	9.4 µM	1.51 µM	5.96 µM	11.2 µM	2.23 µM	14 µM	0.208 µM	0.205 µM	0.131 µM	0.2 µM	0.156 µM	0.324 µM	0.494 µM	0.238 µM	0.564 µM	0.22 µM
O=C1c2ccccc2C(=O)N1C/C=N/NS(=O)(=O)c1cccc([N+](=O)[O-])c1	> 100 µM	> 100 µM	> 100 µM	> 100 µM	> 100 µM	> 100 µM	> 100 µM	> 100 µM	> 100 µM	> 100 µM	–	–	–	–	–	–	–	–	–	–
CC(C)Cn1cnc2c(N)nc3ccccc3c21	> 88.2 µM	> 100 µM	> 73.1 µM	> 48.3 µM	> 100 µM	> 100 µM	> 100 µM	> 100 µM	> 100 µM	> 100 µM	20.7 µM	27.9 µM	19.8 µM	5.5 µM	41.8 µM	43.9 µM	78.5 µM	28.8 µM	47.8 µM	47.5 µM
O=S(=O)(c1ccccc1)N1CCC1c1ccccc1 (stereo not given)	> 100 µM	> 100 µM	> 100 µM	> 100 µM	> 100 µM	> 100 µM	> 100 µM	> 100 µM	> 100 µM	> 100 µM	–	–	–	–	–	–	–	–	–	–
